{"source": "patent US9504685B2", "about": "“Method for treating a pulmonary hypertension condition” (Gilead Sciences, Inc., priority 2006, dated 2016)", "test_system": "subjects with PAH", "assay": "Example 1 (ARIES-2) placebo-controlled Phase III trial, efficacy", "format": "in vivo, human", "method": "The primary objective of this study was to determine the effect of ambrisentan on exercise capacity in subjects with PAH. The secondary objectives of this study were to evaluate effects of ambrisentan on other clinical measures of PAH, as well as safety and tolerability of the study drug.\nStudy drug was provided in round, biconvex, oral tablets that were identical in appearance. Three strengths of active study drug, containing 1 mg, 2.5 mg or 5 mg of ambrisentan, were used in this study. All study drug was packaged in blister cards. Subjects were instructed to take study drug once daily (q.d.) by mouth (p.o.) in the morning, with or without food.\nThe maximum study duration was up to 14 weeks from the time of initial screening procedures to the final study visit (Week 12). Screening procedures were performed a maximum of 2 weeks prior to the first dose of study drug. The maximum duration of study drug treatment was 12 weeks.\nMen and women, 18 years of age or older, with idiopathic PAH, PAH associated with connective tissue disease (CTD), e.g., mixed CTD, CREST syndrome, systemic sclerosis (scleroderma), overlap syndrome or systemic lupus erythematosus, or PAH associated with anorexigen use or HIV infection were enrolled in this study. Subjects were to have a documented mean PAP≧25 mmHg, PVR>3 mmHg/L/min, and PCWP or LVEDP<15 mmHg. Subjects must have been able to walk a distance of at least 150 m but no more than 450 m during 2 consecutive 6MWTs to be eligible for inclusion in the study.\nAfter a 2 week screening period, eligible subjects were stratified based on the underlying etiology of PAH (idiopathic or non-idiopathic) and were randomized to 1 of 3 treatment groups (placebo, 2.5 mg or 5 mg ambrisentan) in a ratio of 1:1:1. One blinded dose reduction was permitted during the 12-week treatment period in the event of study drug intolerance (e.g., 5 mg to 2.5 mg, 2.5 mg to 1 mg, placebo to placebo). Subjects received a daily dose of 1 mg ambrisentan only if they reduced from the 2.5 mg dose group. Subjects were assessed for efficacy and safety at monthly intervals.\nTherefore, after a minimum treatment period of 4 weeks, subjects who met 2 or more of the following predefined early escape criteria may have been removed from the study: • (a) a decrease from baseline of at least 20% in 6MWD; • (b) an increase of 1 or more WHO functional class; • (c) worsening right ventricular failure (e.g., as indicated by increased jugular venous pressure, new or worsening hepatomegaly, ascites or peripheral edema); • (d) rapidly progressing cardiogenic, hepatic or renal failure; and/or • (e) refractory systolic hypotension (systolic blood pressure <85 mmHg).\nThe primary efficacy endpoint was change from baseline in 6MWD evaluated after 12 weeks of treatment compared to placebo.\nThe secondary efficacy endpoints included: • (a) time to clinical worsening of PAH, as defined by the time from randomization to the first occurrence of death, lung transplantation, hospitalization for PAH, atrial septostomy, study discontinuation due to addition of other PAH therapeutic agents, or study discontinuation due to 2 or more early escape criteria; • (b) change from baseline measured after 12 weeks of treatment compared to placebo in: • (i) WHO functional class; • (ii) SF-36® health survey physical functioning scale; • (iii) BDI immediately following exercise; and/or • (iv) an assessment of the safety and tolerability of the study drug; and • (c) change from baseline measured after 12 weeks of treatment compared to placebo in plasma levels of ET-1, cTnT and BNP. Safety Assessments\nFor the ITT population, subjects were considered as belonging to their randomized treatment group, regardless of the actual treatment received.\nThe primary efficacy endpoint was the change from baseline in 6MWD evaluated after 12 weeks of treatment compared to placebo, where the last observation was carried forward. […]", "key": {"[1]": {"details": "5 mg once daily, baseline to Week 12"}, "[2]": {"details": "combined 2.5 mg and 5 mg groups, 12 weeks"}, "[3]": {"details": "combined 2.5 mg and 5 mg groups, ITT population"}, "[4]": {"details": "combined 2.5 mg and 5 mg groups, baseline to Week 12"}}}
{"smiles": "COC(c1ccccc1)(c1ccccc1)[C@H](Oc1nc(C)cc(C)n1)C(=O)O", "note": "[ambrisentan]", "values": [{"measurement": "Change in SF-36 Role-physical, mean (SD)", "setting": "[1]", "result": "+7.61 (10.41)"}, {"measurement": "Change in SF-36 Social functioning, mean (SD)", "setting": "[1]", "result": "+4.85 (11.89)"}, {"measurement": "Change in SF-36 Vitality, mean (SD)", "setting": "[1]", "result": "+5.21 (8.79)"}, {"measurement": "Change in WHO functional class: +1 class", "setting": "[1]", "result": "2 (3.2) subjects (% of ITT population)"}, {"measurement": "Change in WHO functional class: +2 classes", "setting": "[1]", "result": "0 (0.0) subjects (% of ITT population)"}, {"measurement": "Change in WHO functional class: no change", "setting": "[1]", "result": "52 (82.5) subjects (% of ITT population)"}, {"measurement": "Change in WHO functional class: −1 class", "setting": "[1]", "result": "8 (12.7) subjects (% of ITT population)"}, {"measurement": "Change in WHO functional class: −2 classes", "setting": "[1]", "result": "1 (1.6) subjects (% of ITT population)"}, {"measurement": "placebo-adjusted 6MWD change from baseline at Week 12", "setting": "South American subgroup, 2.5 mg once daily", "result": "+50.5 m"}, {"measurement": "placebo-adjusted 6MWD change from baseline at Week 12", "setting": "South American subgroup, 5 mg once daily", "result": "+79.5 m"}, {"measurement": "placebo-adjusted 6MWD change from baseline at Week 12", "setting": "WHO class I/II subgroup, 2.5 mg once daily", "result": "+44.1 m"}, {"measurement": "placebo-adjusted 6MWD change from baseline at Week 12", "setting": "WHO class I/II subgroup, 5 mg once daily", "result": "+67.7 m"}, {"measurement": "placebo-adjusted 6MWD change from baseline at Week 12", "setting": "WHO class III/IV subgroup, 2.5 mg once daily", "result": "+17.6 m"}, {"measurement": "placebo-adjusted 6MWD change from baseline at Week 12", "setting": "WHO class III/IV subgroup, 5 mg once daily", "result": "+51.8 m"}, {"measurement": "placebo-adjusted BDI at Week 12", "setting": "combined 2.5 mg and 5 mg groups", "result": "−1.1"}, {"measurement": "Clinical worsening event: Atrial septostomy", "setting": "[2]", "result": "0 (0.0) subjects (% of ITT population)"}, {"measurement": "Clinical worsening event: Death", "setting": "[2]", "result": "2 (1.6) subjects (% of ITT population)"}, {"measurement": "Clinical worsening event: Escape criteria", "setting": "[2]", "result": "3 (2.4) subjects (% of ITT population)"}, {"measurement": "Clinical worsening event: Hospitalization for PAH", "setting": "[2]", "result": "5 (3.9) subjects (% of ITT population)"}, {"measurement": "Clinical worsening event: Lung transplantation", "setting": "[2]", "result": "0 (0.0) subjects (% of ITT population)"}, {"measurement": "Clinical worsening event: Study withdrawal due to addition of PAH treatment", "setting": "[2]", "result": "0 (0.0) subjects (% of ITT population)"}, {"measurement": "Clinical worsening: Total subjects with ≧1 event", "setting": "[2]", "result": "6 (4.7) subjects (% of ITT population)"}, {"measurement": "Change in 6MWD from baseline to Week 12, mean", "setting": "[3]", "result": "+35.7 meters"}, {"measurement": "Week 12 6MWD, mean", "setting": "[3]", "result": 387.0, "unit": "meters"}, {"measurement": "subjects who deteriorated by at least 1 WHO class", "setting": "combined 2.5 mg and 5 mg groups, Week 12", "result": 3.9, "unit": "%"}, {"measurement": "Change in SF-36 Bodily pain, mean (SD)", "setting": "[4]", "result": "+1.40 (10.96)"}, {"measurement": "Change in SF-36 General health, mean (SD)", "setting": "[4]", "result": "+4.40 (7.40)"}, {"measurement": "Change in SF-36 Mental component summary, mean (SD)", "setting": "[4]", "result": "+5.17 (11.00)"}, {"measurement": "Change in SF-36 Mental health, mean (SD)", "setting": "[4]", "result": "+4.50 (9.88)"}, {"measurement": "Change in SF-36 Physical component summary, mean (SD)", "setting": "[4]", "result": "+3.38 (7.69)"}, {"measurement": "Change in SF-36 Role-emotional, mean (SD)", "setting": "[4]", "result": "+5.63 (13.86)"}, {"measurement": "Change in SF-36 Role-physical, mean (SD)", "setting": "[4]", "result": "+6.74 (11.07)"}, {"measurement": "Change in SF-36 Social functioning, mean (SD)", "setting": "[4]", "result": "+4.70 (10.81)"}, {"measurement": "Change in SF-36 Vitality, mean (SD)", "setting": "[4]", "result": "+4.64 (8.94)"}, {"measurement": "Change in WHO functional class: +1 class", "setting": "[4]", "result": "4 (3.1) subjects (% of ITT population)"}, {"measurement": "Change in WHO functional class: +2 classes", "setting": "[4]", "result": "1 (0.8) subjects (% of ITT population)"}, {"measurement": "Change in WHO functional class: no change", "setting": "[4]", "result": "103 (81.1) subjects (% of ITT population)"}, {"measurement": "Change in WHO functional class: −1 class", "setting": "[4]", "result": "18 (14.2) subjects (% of ITT population)"}, {"measurement": "Change in WHO functional class: −2 classes", "setting": "[4]", "result": "1 (0.8) subjects (% of ITT population)"}, {"measurement": "placebo-adjusted 6MWD change from baseline at Week 12", "setting": "eastern European subgroup, 2.5 mg once daily", "result": "+66.1 m"}, {"measurement": "placebo-adjusted 6MWD change from baseline at Week 12", "setting": "eastern European subgroup, 5 mg once daily", "result": "+88.0 m"}, {"measurement": "placebo-adjusted 6MWD change from baseline at Week 12", "setting": "female subjects, 2.5 mg once daily", "result": "+42.5 m"}, {"measurement": "placebo-adjusted 6MWD change from baseline at Week 12", "setting": "female subjects, 5 mg once daily", "result": "+75.7 m"}, {"measurement": "placebo-adjusted 6MWD change from baseline at Week 12", "setting": "idiopathic PAH subgroup, 2.5 mg once daily", "result": "+56.3 m"}, {"measurement": "placebo-adjusted 6MWD change from baseline at Week 12", "setting": "idiopathic PAH subgroup, 5 mg once daily", "result": "+75.7 m"}, {"measurement": "placebo-adjusted 6MWD change from baseline at Week 12", "setting": "male subjects, 2.5 mg once daily", "result": "+6.8 m"}, {"measurement": "placebo-adjusted 6MWD change from baseline at Week 12", "setting": "male subjects, 5 mg once daily", "result": "+2.7 m"}, {"measurement": "placebo-adjusted 6MWD change from baseline at Week 12", "setting": "non-idiopathic PAH subgroup, 2.5 mg once daily", "result": "−12.6", "unit": "m"}, {"measurement": "placebo-adjusted 6MWD change from baseline at Week 12", "setting": "non-idiopathic PAH subgroup, 5 mg once daily", "result": "+29.5 m"}, {"measurement": "reduction in the probability of clinical worsening (hazard ratio) compared to placebo", "setting": "subjects receiving ambrisentan (combined group), 12 weeks", "result": 80, "unit": "%"}, {"measurement": "subjects hospitalized for PAH", "setting": "subjects receiving ambrisentan (combined), 12 weeks", "result": 3.9, "unit": "%"}, {"measurement": "placebo-adjusted 6MWD change from baseline at Week 12", "setting": "western European/Israel subgroup, 2.5 mg once daily", "result": "+3.0 m"}, {"measurement": "placebo-adjusted 6MWD change from baseline at Week 12", "setting": "western European/Israel subgroup, 5 mg once daily", "result": "+39.4 m"}]}
